According to US4774242A, “Tetrahydrobenz(c,d)indoles and pharmaceutical use” (Roussel Uclaf, priority 1986, dated 1988):

How the values were obtained:
[1] = biological target: T1, dopaminergic receptors (Rattus norvegicus, UniProt P61169); test: Affinities for the dopaminergic receptors (displacement of spiroperidol 3H, rat striated bodies); assay type: binding; settings: rat striatum, relative to haloperidol = 100, from concentrations inhibiting 50% of specific fixation
T1 construct: Striated bodies removed from the brains of 6 male rats; from tissue; host or cells: rat striatum (striated bodies), membrane fraction
T1 sequence (P61169 whole entry): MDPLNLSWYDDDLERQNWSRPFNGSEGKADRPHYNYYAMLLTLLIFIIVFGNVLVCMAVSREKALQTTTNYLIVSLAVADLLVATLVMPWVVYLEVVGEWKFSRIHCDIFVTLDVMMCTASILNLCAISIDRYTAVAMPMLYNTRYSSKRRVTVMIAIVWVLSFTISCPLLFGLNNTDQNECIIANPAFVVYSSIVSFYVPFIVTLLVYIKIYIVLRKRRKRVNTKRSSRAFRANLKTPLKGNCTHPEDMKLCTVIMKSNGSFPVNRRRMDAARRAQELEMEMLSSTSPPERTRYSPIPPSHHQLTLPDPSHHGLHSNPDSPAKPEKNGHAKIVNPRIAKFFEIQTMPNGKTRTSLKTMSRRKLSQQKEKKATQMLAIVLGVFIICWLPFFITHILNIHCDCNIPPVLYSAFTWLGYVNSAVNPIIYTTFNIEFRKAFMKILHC
Procedure: Striated bodies removed from the brains of 6 male rats weighing an average of 150 g were homogenized at one-twentieth (weight/volume) in 0.32M sucrose. After centrifuging the homogenized mixture at 1000 g for 10 minutes at 0° C., the supernatant was centrifuged at 30,000 g for 15 minutes at +4° C. The residue was taken up in 25 ml of Tris HCl 50 mM pH 7.7 buffer and centrifuged at 30,000 g for 15 minutes at +4° C. The new residue was taken up in 50 ml of Krebs Tris HCl pH 7.3 buffer and the suspension was pre-incubated for 10 minutes at 37° C. Then it was incubated for 29 minutes on a water-bath at +37° C. in the presence of spiroperidol ^3 H alone, with an excess of haloperidol, and with increasing concentrations of the test product. The incubated suspensions were filtered on Whatman GF/C and the filters were washed three times with 5 ml of Tris HCl 50 mM buffer. The radioactivity of the filters is measured by liquid scintillation. The non-specific fixation was determined in parallel by incubation of spiroperidol ^3 H in the presence of an excess of haloperidol. The affinity of the product tested for the dopaminergic receptors is given relative to haloperidol as reference product,
CD=concentration of cold haloperidol inhibiting 50% of the specific fixation of the spiroperidol ^3 H,
CX=concentration of the product under test inhibiting 50% of the specific fixation of the piroperidol ^3 H.
The relative affinity was determined by the relation: [formula]

[2] = Study of the acute toxicity (LD0); assay type: in vivo; settings: oral, mice, maximal dose not causing any mortality over 8 days
Procedure: The lethal doses LD0 of the different compounds tested was evaluated after oral administration in mice and the maximal dose not causing any mortality over 8 days was called the LD0.

[3] = test system: arterial pressure; test: Determination of hypotensive activity (carotid arterial pressure, anesthetized rats); assay type: in vivo, male rats of WISTAR strain; settings: 0.01 mg/kg intravenous, anesthetized male Wistar rats
Procedure: The hypotensive activity was studied in male rats of WISTAR strain weighing about 300 g and anesthetized with nembutal (50 mg/kg by intraperitoneal route). The test product was administered intravenously in the jugular vein. The arterial pressure in the carotid was measured before and after administration of the test product. The following table indicates the variations expressed in percentage of the arterial pressure after administration of the product under test relative to the initial control arterial pressure.

[4] = test system: enolase γγ; test: Antianoxic activity: enolase test (kainic acid lesions); assay type: in vivo; settings: intraperitoneal, upwards of a dose of 1 mg/kg, 1 hour after kainic acid, mice
Procedure: Suffering cerebral cells release enolase γγ which is a specific indicator of neuronal lesions. In the test, the lesions were carried out in mice by subcutaneous injection of 35/mg/kg of kainic acid.

Structure (SMILES) | Relative affinity (Haloperidol = 100) [1] | LD0 [2] [mg/kg] | % Variations of the arterial pressure 5 minutes after administration [3] [%] | seral concentration of enolase [4]
c1cc2c3c(c[nH]c3c1)[C@H]1OCCN[C@@H]1C2 (relative stereo) [Example 2, (dl-trans) 2,6,6a,7,8,9,10a-hexahydro-6H-indol-[4,3-g,h]-1,4-benzoxazine] | 0.09 | > 200 |  | 
CCCN1CCO[C@@H]2c3c[nH]c4cccc(c34)C[C@H]21 (relative stereo) [Example 3, (dl-trans) 2,6a,7,8,9,10a-hexahydro-7-propyl-6H-indol-[4,3-g,h]-1,4-benzoxazine] | 13 | 100 | < -40 | reduced the seral concentration of enolase
CN1CCO[C@@H]2c3c[nH]c4cccc(c34)C[C@H]21 (relative stereo) [Example 4, (d,l trans) 2,6a,7,8,9,10a-hexahydro-7-methyl 6H-indol-[4,3-g,h]-1,4-benzoxazine] | 0.4 |  |  | 
